The values that follow come from patent US9090629B2, “Cytotoxic agents comprising new ansamitocin derivatives” (ImmunoGen, Inc., priority 2010, dated 2015).

One test has as its system COLO 205 cell line. The test is described as follows: in-vitro activity of ansamitocin derivatives. To be noted: 96 hour exposure; read-out: IC50 against COLO 205 cell line. The class given is cell-based, human. As for the experimental part:
(§1) All reagents were purchased from the Aldrich Chemical Co., New Jersey, or other commercial sources. Maytansinol (11) was prepared as described previously (U.S. Pat. No. 6,333,410). Nuclear Magnetic Resonance (^1H NMR) spectra were acquired on a Bruker 400 MHz instrument and mass spectra were acquired on a Bruker Daltonics Esquire 3000 instrument using electrospray ionization. In vitro cytotoxicity assays are performed as previously described (see U.S. Pat. No. 7,276,497 and W. C. Widdison et al., J. Med. Chem., 2006, 49, 4392-4408).
(§2) The KB (ATCC CCl-17) cell line is of human epithelial origin. The SK-BR-3 (ATCC HTB-30) cell line was established from a human breast adenocarcinoma. The human colon tumor cell lines COLO 205 (ATCC CCL-222) and HT-29 (ATCC HTB 38), the human melanoma cell line A-375 (ATCC CRL 1619), the human Burkitts lymphoma cell line Ramos (ATCC CRL-1596) and the human myeloid leukemia cell line HL-60 (ATCC CCL-240) were all obtained from ATCC, Maryland. Cell lines were grown in Dulbecco's modified Eagles Medium (DMEM, Biowhittaker, Walkersville, Md.) with L-glutamine supplemented with 10% fetal bovine serum (Hyclone, Logan, Utah) and 50 μg/mL gentamycin sulfate (Life Technologies, Rockville, Md.). Cells were maintained at 36-37.5° C. in a humidified atmosphere that contained 6% CO2.

Test [1] deals with KB cells. As to the kind of experiment: clonogenic in vitro cytotoxicity assay. The class given is cell-based, human. Particulars: 72 hours incubation. As for the experimental part: as §2
(§3) The cytotoxicity study was performed using a clonogenic assay. The test cell lines (KB and SK-Br-3) were plated into 6-well culture dishes at a constant number of 1000 cells per well. Cells were incubated with varying concentrations (0 to 3 nM) of the various ansamitocins or maytansine for 72 hours. The medium was then aspirated from the plates and replaced with fresh medium. Cultures were allowed to grow, and form colonies, for a total of 7-10 days after plating. The cultures were then fixed and stained with 0.2% crystal violet in 10% formalin/PBS and colonies were counted. Plating efficiency of non-treated cells (medium alone) was determined by dividing the number of colonies counted by the number of cells plated. Surviving fraction of cells exposed to the drugs was determined by dividing the number of colonies in wells that were exposed to the drug by the number of colonies in the control wells.

Test [2] concerns KB cells. To be noted: literature report, cited from earlier work.
Another test deals with L1210 cells. Particulars: L1210 cells treated in vivo; untreated control 3.2 to 5.8%; cited from earlier work.
Test [3] relates to human acute lymphoblastic leukemia line CEM. To be noted: literature report; cited from earlier work.
The test system of test [4] is human nasopharyngeal carcinoma cells. Particulars: literature report; cited from earlier work.
The next test deals with SK-Br-3 cells. As to the kind of experiment: clonogenic in vitro cytotoxicity assay. The class given is cell-based, human. Particulars: for IC50: read-out: IC50 towards SK-Br-3 cells. Here is the method:
as §2, §3

For test [5], the system named is L1210 mouse leukemia system. To be noted: literature report; cited from earlier work.
For another test, the system named is COLO 205-MDR cell line. As to the kind of experiment: in-vitro activity of ansamitocin derivatives. The format is cell-based, human. Particulars: 96 hour exposure; read-out: IC50 against COLO 205-MDR cell line. As for the experimental part: as §1
The next test has as its system KB cell line. As to the kind of experiment: in-vitro activity of ansamitocin derivatives. The format is cell-based, human.
Description: The in vitro cytotoxicity of ansamitocin derivatives of the present invention can be measured by methods previously disclosed (U.S. Pat. No. 7,276,497 and Widdison et al., J. Med. Chem., 49; 4392, 2006, both expressly incorporated herein by reference). For example, cell lines such as the human breast carcinoma line SK-Br-3, or the human epidermoid carcinoma cell line KB, can be used for the assessment of cytotoxicity of these new ansamitocin derivatives. Cells to be evaluated are exposed to the compounds for 72 hours and the surviving fractions of cells measured in direct assays by known methods. IC50 values are calculated from the results of the assays.
as §1
The KB (ATCC CCl-17) cell line is of human epithelial origin. The SK-BR-3 (ATCC HTB-30) cell line was established from a human breast adenocarcinoma. […]

Where two headings read alike, the source gives them in different places.

In general, IC50 refers to the concentration that inhibits the measured activity by half. Regarding `COc1cc2cc(c1Cl)N(C)C(=O)C[C@H](OC(=O)c1ccc(CSSC)cc1)[C@]1(C)O[C@H]1[C@H](C)[C@@H]1C[C@@](O)(NC(=O)O1)[C@H](OC)/C=C/C=C(\C)C2` [compound 59, 4-((methyldisulfanyl)methyl)benzoic acid ester of maytansinol], the IC50 with COLO 205 cell line was determined as 0.53 nM.

For `CCC(=O)O[C@H]1CC(=O)N(C)c2cc(cc(OC)c2Cl)C/C(C)=C/C=C/[C@@H](OC)[C@@]2(O)C[C@H](OC(=O)N2)[C@@H](C)[C@@H]2O[C@@]12C` [ansamitocin bearing a C3 propionyl ester], the “fold more potent than maytansine towards KB cells” value in the test with KB cells [1] stood at 1.3 fold. Moreover, the “fold less potent than maytansine (Kupchan et al.)” value in the test with KB cells [2] (KB cells) was “about 34.4 fold”.

Turning to `COc1cc2cc(c1Cl)N(C)C(=O)C[C@H](OC(=O)CCCCCSSC)[C@]1(C)O[C@H]1[C@H](C)[C@@H]1C[C@@](O)(NC(=O)O1)[C@H](OC)/C=C/C=C(\C)C2` [compound 54, 6-(methyldithio)hexanoic acid ester of maytansinol], the IC50 in the test with COLO 205 cell line came out at 0.31 nM.

Consider `COc1cc2cc(c1Cl)N(C)C(=O)C[C@H](OC(=O)[C@H](C)N(C)C(C)=O)[C@]1(C)O[C@H]1[C@H](C)[C@@H]1C[C@@](O)(NC(=O)O1)[C@H](OC)/C=C/C=C(\C)C2` [maytansine, N-acetyl-N-methyl-L-alanyl ester of maytansinol], for which the “cells accumulating in mitosis” value with L1210 cells was 67%. The “inhibitory concentration, CEM line” value in test [3] is ≥ 10^−7 mg/ml. In addition, the “inhibition of in vitro growth of human nasopharyngeal carcinoma cells” value in [4] is given as “active inhibitor”. Also, the IC50 in the test on SK-Br-3 cells (Homo sapiens, SK-BR-3, 72 hours incubation) worked out at 0.034 nM. Moreover, the “inhibitory activity in vivo” value in [5] was “significant inhibitory activity”. Further, in the test with KB cells [2], the “IC50 towards cancer cells (Kupchan et al.)” value is recorded as 0.0000061 micrograms/mL.

For the molecule `COc1cc2cc(c1Cl)N(C)C(=O)C[C@H](OC(=O)CCCN(C)C)[C@]1(C)O[C@H]1[C@H](C)[C@@H]1C[C@@](O)(NC(=O)O1)[C@H](OC)/C=C/C=C(\C)C2` [compound 66, Dimethylamino Butyric Acid Ester of Maytansinol], the IC50 was above 20 nM in the test with COLO 205-MDR cell line; 11 to 12 nM with COLO 205 cell line; 11 to 12 nM in the test with KB cell line (96 hour exposure, read-out: IC50 against the KB cell line).

In the case of `COc1cc2cc(c1Cl)N(C)C(=O)CC(OC(=O)CCCCC(=O)O)C1(C)OC1C(C)C1CC(O)(NC(=O)O1)C(OC)C=CC=C(C)C2` (stereo not drawn) [14b, Hexanedioic Acid Ester of Maytansinol], the “fold reduction in activity compared to the TMS-protected precursor 14a” value with KB cell line (KB cell line) came to 15 fold.

For `CCCCC(=O)O[C@H]1CC(=O)N(C)c2cc(cc(OC)c2Cl)C/C(C)=C/C=C/[C@@H](OC)[C@@]2(O)C[C@H](OC(=O)N2)[C@@H](C)[C@@H]2O[C@@]12C` [ansamitocin P4′], in the test with SK-Br-3 cells (72 hours incubation), the “fold more potent than maytansine towards SK-Br-3 cells” value worked out at 17 fold and the IC50 stood at 0.002 nM.

Turning to `COc1cc2cc(c1Cl)N(C)C(=O)C[C@H](OC(=O)CCCCC(=O)OCC[Si](C)(C)C)[C@]1(C)O[C@H]1[C@H](C)[C@@H]1C[C@@](O)(NC(=O)O1)[C@H](OC)/C=C/C=C(\C)C2` [14a], the IC50 in the test on COLO 205-MDR cell line turned out to be 4.8 nM; in the test on COLO 205 cell line, 0.4 nM.
